Each block holds one molecule with its values, some of them ahead of it.
Legend:
Type in all cases: physicochemical
[1] = Absorption characteristics of dyes in ethyl acetate; conditions: for absorption maxima wavelength (λmax): Example 1
Description: The σp value of substituents in dyes of the present invention, the absorption maxima wavelength of these dyes in ethyl acetate and their half value widths are tabulated below.
The absorption characteristics of Dyes 1, 2, 8, 12, 23, 101, 102, 104, 105, 106, 128, 129, 130, and 131 of the present invention in ethyl acetate are as shown in FIGS. 1 to 14. In these figures, the abbreviation "ABS" in the ordinate means the absorbance. The absorption maxima wavelength (λmax) in ethyl acetate and other physical properties of the dyes of the present invention are as follows: […]

[2] = Heat fastness of dye images, 60° C. dry, 7 days (Example 2); conditions: Table 1, initial density 1.0, at λmax
Experimental: (§1) The heat transfer image-receiving materials on which recording had been made were then irradiated with light from a 17,000 lux fluorescent lamp for 7 days to examine the stability of the dyes. The heat transfer image-receiving materials were also stored at a temperature of 60° C. under dry conditions for 7 days to examine the fastness of the dyes to heat. […] For the evaluation of stability, percentage of the measurements to the initial value (1.0) were determined. The measurement was effected at λmax.

[3] = Light fastness of dye images, 17,000 lux fluorescent lamp, 7 days
Experimental: as §1
(§2) Heat transfer dye providing materials (3-1), (3-2), and (3-3) were prepared in the same manner as in Example 2 except that the polyvinyl butyral resin and dye to be incorporated in the heat transfer dye providing layer coating composition of Example 2 were replaced by the resins and dyes set forth in Table 3.
(§3) Using the same image-receiving material as prepared in Example 2, printing was made on these heat transfer dye providing materials.
as §2, with “(6-1), (6-2),” for “(3-1), (3-2),”, “(6-3)” for “(3-3)”, “6.” for “3.”

[4] = Heat fastness of dye images, 60° C. dry, 7 days, status A reflection density (Example 5); conditions: Table 4, status A reflection density 1.0
Experimental: The heat transfer image-receiving materials on which recording had been made were stored at a temperature of 60° C. under dry conditions for 7 days to examine the fastness of the dyes to heat. […] For the evaluation of stability, percentage of the measurements to the initial value (1.0) were determined.
as §3

[5] = Table 1, 17,000 lux, 7 days, initial density 1.0, at λmax, polyvinyl butyral

Heat fastness (% remaining) [4]: 89%
Compound: CCN(CC)c1ccc(N=C2N=C(c3ccccc3NC(=O)C(C)(C)C)C(C#N)=C2c2ccccc2)cc1 [Dye 116]

Heat fastness (% remaining) [4]: 94%
Compound: CCN(CC)c1ccc(N=C2N=C(c3ccccc3)C(C#N)=C2C(C)(C)C)c(NC(=O)N2CCOCC2)c1 [Dye 117]

Heat fastness (% remaining) [4]: 91%
Compound: CCN(CC)c1ccc(N=C2N=C(c3ccccc3Cl)C(C(C)(C)C)=C2C#N)c(NC(=O)C(C)(C)C)c1 [Dye 118]

Heat fastness (% remaining) [4]: 90%
Compound: CCN(CCC#N)c1ccc(N=C2N=C(NC(=O)C(C)(C)C)C(C#N)=C2C#N)cc1 [Dye 119]

Heat fastness (% remaining) [4]: 98%
Compound: CCN(CCOc1ccc(C(=O)c2ccccc2)c(O)c1)c1ccc(N=C2N=C(c3ccccc3)C(C#N)=C2c2cccs2)cc1 [Dye 120]

Half value width [1]: 64 nm | absorption / hue (in words) [1]: long absorption maxima wavelength | half value width (in words) [1]: sufficiently small | absorption maxima wavelength (λmax) [1]: 658 nm
Compound: CCN(CCNS(C)(=O)=O)c1ccc(N=C2N=C(NC(C)=O)C(C#N)=C2C#N)c(C)c1 [Dye 128]

Half value width [1]: 79 nm | absorption / hue (in words) [1]: long absorption maxima wavelength | half value width (in words) [1]: sufficiently small | absorption maxima wavelength (λmax) [1]: 677 nm
Compound: CCN(CCNS(C)(=O)=O)c1ccc(N=C2N=C(NC(=O)Nc3ccccc3)C(C#N)=C2C#N)c(C)c1 [Dye 129]

Half value width [1]: 120 nm | half value width (in words) [1]: large half value width | absorption maxima wavelength (λmax) [1]: 639 nm
Compound: CCCCCCCCCCCCCCCCS(=O)(=O)Nc1ccc(Cl)c(NC(=O)NC2=NC(=Nc3ccc(N(CC)CCNS(C)(=O)=O)cc3)C(C(N)=O)=C2C(N)=O)c1 [Dye 130]

Half value width [1]: 98 nm | half value width (in words) [1]: large half value width | Absorption maxima ([1]; first table): 629 nm
Compound: CCC(Oc1ccc(C(C)(C)CC)cc1C(C)(C)CC)C(=O)NC1=NC(=Nc2ccc(N(CC)CCNS(C)(=O)=O)cc2C)C(C(N)=O)=C1C(N)=O (stereo not drawn) [Dye 131]

Heat fastness (% remaining) [2]: 88% | Light fastness (% remaining) [3, 5]: 87%
Compound: CCC1=C(Cl)C(=O)C(NC(=O)c2ccco2)=CC1=Nc1ccc(N(CC)CC)cc1 [Dye a, reference compound]

Heat fastness (% remaining) [4]: 83%
Compound: CCN(CC)c1ccc(N=C2C=C(NC(=O)c3ccco3)C(=O)C(Cl)=C2C)cc1 [Dye b, reference compound]

The remaining lines, values behind:

Compound: CCOC(=O)c1c(C)n2c(nc1=O)C(C#N)=C(c1ccccc1)C2=Nc1ccc(N(CC)CCNS(C)(=O)=O)cc1C [Dye 1]
absorption maxima wavelength (λmax) [1]: 697 nm

Compound: CCOC(=O)c1c(C)n2c(nc1=O)C(C#N)=C(c1ccccc1)C2=Nc1ccc(N(CC)CC)cc1 [Dye 2]
Heat fastness (% remaining) [2]: 85% | absorption maxima wavelength (λmax) [1]: 685 nm | Light fastness (% remaining) [3, 5]: 90% | Light fastness (% remaining) ([3]; Table 3, resin ethyl cellulose): 91%

Compound: CCOC(=O)c1c(C)n2c(nc1=O)C(C#N)=C(c1ccccc1)C2=Nc1ccc(N(CC)CCOc2ccc(OC)cc2)cc1 [Dye 3]
Heat fastness (% remaining) [2]: 86% | Light fastness (% remaining) [3, 5]: 92%

Compound: CCOC(=O)c1c(C)n2c(nc1=O)C(C#N)=C(c1ccccc1)C2=Nc1ccc(N(CC)CC)cc1NC(=O)OC [Dye 4]
Heat fastness (% remaining) [2]: 85% | Light fastness (% remaining) [3, 5]: 91% | Light fastness (% remaining) ([3]; Table 3, resin cellulose acetobutyrate): 92%

Compound: CCOC(=O)c1cn2c(nc1=O)C(C#N)=C(c1ccccc1)C2=Nc1ccc(N(CC)CC)cc1 [Dye 8]
Heat fastness (% remaining) [2]: 99% | absorption maxima wavelength (λmax) [1]: 694 nm | Light fastness (% remaining) [3, 5]: 91% | Light fastness (% remaining) ([3]; Table 3, resin polysulfone): 91%

Compound: CCOC(=O)c1cn2c(nc1=O)C(C#N)=C(c1ccccc1)C2=Nc1ccc(N(CC)CCOc2ccc(OC)cc2)cc1 [Dye 10]
Heat fastness (% remaining) [2]: 100% | Light fastness (% remaining) [3, 5]: 93%

Compound: CCOC(=O)c1cn2c(nc1=O)C(C#N)=C(c1ccccc1)C2=Nc1ccc(N(CC)CC)cc1NC(=O)OC [Dye 12]
Heat fastness (% remaining) [2]: 98% | absorption / hue (in words) [1]: sufficient and sharp absorption in the vicinity of 700 nm and little or no absorption in the wavelength region of longer than 800 nm | absorption maxima wavelength (λmax) [1]: 698 nm | Light fastness (% remaining) [3, 5]: 94%

Compound: CCOC(=O)c1cn2c(nc1=O)C(C#N)=C(C#N)C2=Nc1ccc(N(CC)CC)cc1NC(=O)N(C)C [Dye 16]
Heat fastness (% remaining) [2]: 98% | Light fastness (% remaining) [3, 5]: 93%

Compound: CCN(CC)c1ccc(N=C2C(C#N)=C(c3ccccc3)c3nc(=O)ccn32)c(NC(C)=O)c1 [Dye 17]
Heat fastness (% remaining) [2]: 95% | Light fastness (% remaining) [3, 5]: 91%

Compound: CCN(CC)c1ccc(N=C2C(c3ccccc3)=C(C#N)c3nc(=O)c4ccccc4n32)c(NC(C)=O)c1 [Dye 22]
Heat fastness (% remaining) [2]: 85% | Light fastness (% remaining) [3, 5]: 91%

Compound: CCCCCCCCCCCCCCCCCCOc1ccc(-c2cc(=O)n3c(n2)C(C#N)=C(c2ccccc2)C3=Nc2ccc(N(CC)CCNS(C)(=O)=O)cc2C)cc1 [Dye 23]
absorption maxima wavelength (λmax) [1]: 658 nm

Compound: CCOC(=O)C1=C(C#N)C(=Nc2ccc(N(CC)CC)cc2)n2c1nc1ccccc1c2=O [Dye 29]
Heat fastness (% remaining) [2]: 86% | Light fastness (% remaining) [3, 5]: 90%

Compound: CCCCCCCCCCCCC(SC1=NC(=Nc2ccc(N(CC)CCNS(C)(=O)=O)cc2C)C(C#N)=C1C(=O)OCC)C(=O)OCC (stereo not drawn) [Dye 101]
Half value width [1]: 65 nm | absorption / hue (in words) [1]: long absorption maxima wavelength | half value width (in words) [1]: sufficiently small | absorption maxima wavelength (λmax) [1]: 660 nm

Compound: CCCCCCCCCCCCSC1=NC(=Nc2ccc(N(CC)CCNS(C)(=O)=O)cc2C)C(C#N)=C1C(=O)OCC [Dye 102]
Half value width [1]: 69 nm | absorption / hue (in words) [1]: long absorption maxima wavelength | half value width (in words) [1]: sufficiently small | absorption maxima wavelength (λmax) [1]: 655 nm

Compound: CCC(Oc1ccc(C(C)(C)CC)cc1C(C)(C)CC)C(=O)NC1=C(C#N)C(c2ccccc2)=NC1=Nc1ccc(N(CC)CCNS(C)(=O)=O)cc1C (stereo not drawn) [Dye 104]
Half value width [1]: 78 nm | absorption / hue (in words) [1]: in a slightly short wavelength range but exhibit a cyan hue | half value width (in words) [1]: large half value width | absorption maxima wavelength (λmax) [1]: 601 nm

Compound: CCOC(=O)C1=C(c2ccccc2)C(=Nc2ccc(N(CC)CCNS(C)(=O)=O)cc2C)N=C1Cl [Dye 105]
Half value width [1]: 82 nm | absorption / hue (in words) [1]: in a slightly short wavelength range but exhibit a cyan hue | half value width (in words) [1]: large half value width | absorption maxima wavelength (λmax) [1]: 582 nm

Compound: CCN(CCNS(C)(=O)=O)c1ccc(N=C2N=C(N)C(C#N)=C2C#N)c(C)c1 [Dye 106]
Half value width [1]: 79 nm | absorption maxima wavelength (λmax) [1]: 641 nm

Compound: CCN(CC)c1ccc(N=C2N=C(NC(=O)C(C)(C)C)C(C#N)=C2C#N)cc1 [Dye 113]
Heat fastness (% remaining) [4]: 90% | Light fastness (% remaining) ([3]; Table 6, resin ethyl cellulose): 91%

Compound: CCN(CC)c1ccc(N=C2N=C(c3ccccc3)C(C#N)=C2c2ccccc2)c(C)c1 [Dye 114]
Heat fastness (% remaining) [4]: 91% | Light fastness (% remaining) ([3]; Table 6, resin cellulose acetobutyrate): 93%

Compound: CCN(CCOc1ccc(OC)cc1)c1ccc(N=C2N=C(c3ccccc3)C(C#N)=C2NC(=O)C(C)(C)C)cc1 [Dye 115]
Heat fastness (% remaining) [4]: 90% | Light fastness (% remaining) ([3]; Table 6, resin polysulfone): 92%
